Test results from patent US10898459B2, “Method of treating chronic kidney disease” (Panion & BF Biotech Inc., priority 2006, dated 2021).

How the values were obtained:
[1] = tested on: patients with end stage renal disease (ESRD) on hemodialysis; test: Treatment-emergent adverse events in the dose-ranging ESRD study; type: in vivo, human
Source text: Safety will be monitored by recording adverse events and the results of physical examinations, vital signs and laboratory tests at each study visit.
Objectives: (1) To determine the effect of ferric citrate at doses of 2, 4 and 6 g daily, administered TID (three times a day), for 28 days on serum phosphate (PO4) levels in patients with end stage renal disease (ESRD). (2) To evaluate the safety of ferric citrate at doses of 2, 4, 6 g daily, administered TID, for 28 days in patients with ESRD.
Study Design: Randomized, double-blind, placebo-controlled, dose-ranging study to assess the effect of ferric citrate on serum phosphate concentrations in patients with ESRD on hemodialysis. Patients are assessed at Study Days 14 and 28 for effectiveness as measured by serum phosphate concentrations. Patients who received one or more doses of study medication are also assessed for safety.

[2] = tested on: patients with end stage renal disease (ESRD); test: Open-label extension of Phase II study: serum creatinine level; type: in vivo, human; settings: several patients who received 6 g/day
Source text: Glomerular filtration rate (GFR) level correlates with structural kidney damage and is used as a golden standard to measure kidney function. GFR can be estimated by the biomarkers serum creatinine. As renal function deteriorates, kidney lost its function to excrete creatinine effectively and lead to creatinine retention in the body. Therefore, increase of serum creatinine indicates lowering GFR and is an important sign of kidney deterioration.
In an open-label extension of a Phase II clinical study: “randomized, double-blind, placebo-controlled, dose-ranging study of the effects of ferric citrate on serum phosphate in patients with end stage renal disease (ESRD)”, some of the patients were administered 2˜6 g/day of ferric citrate and serum creatinine level was monitored to assess kidney function.

Substance: ferric citrate
- Abdominal Pain (Preferred Term), # Event ([1]; 2 g/day (N = 33)): 0
- Abdominal Pain (Preferred Term), (%) ([1]; 2 g/day (N = 33)): (0.0) %
- Diarrhea (Preferred Term), # Event ([1]; 2 g/day (N = 33)): 3
- Diarrhea (Preferred Term), (%) ([1]; 2 g/day (N = 33)): (9.1) %
- GI Disorder, Definitely (relationship), # Event ([1]; 2 g/day (N = 33)): 0
- GI Disorder, Definitely (relationship), (%) ([1]; 2 g/day (N = 33)): (0.0) %
- GI Disorder, Possibly (relationship), # Event ([1]; 2 g/day (N = 33)): 3
- GI Disorder, Possibly (relationship), (%) ([1]; 2 g/day (N = 33)): (9.1) %
- GI Disorder, Probably (relationship), # Event ([1]; 2 g/day (N = 33)): 2
- GI Disorder, Probably (relationship), (%) ([1]; 2 g/day (N = 33)): (6.1) %
- GI Disorders (System Organ Class), # Event ([1]; 2 g/day (N = 33)): 8
- GI Disorders (System Organ Class), (%) ([1]; 2 g/day (N = 33)): (24.2) %
- GI Disorders, Mild (severity), # Event ([1]; 2 g/day (N = 33)): 6
- GI Disorders, Mild (severity), (%) ([1]; 2 g/day (N = 33)): (18.2) %
- General Disorders (System Organ Class), # Event ([1]; 2 g/day (N = 33)): 4
- General Disorders (System Organ Class), (%) ([1]; 2 g/day (N = 33)): (12.1) %
- Infections and Infestations (System Organ Class), # Event ([1]; 2 g/day (N = 33)): 0
- Infections and Infestations (System Organ Class), (%) ([1]; 2 g/day (N = 33)): (0.0) %
- Skin and SC Tissue Disorders (System Organ Class), # Event ([1]; 2 g/day (N = 33)): 3
- Skin and SC Tissue Disorders (System Organ Class), (%) ([1]; 2 g/day (N = 33)): (9.1) %
- T#at1 AE, Definitely (relationship), # Event ([1]; 2 g/day (N = 33)): 0
- T#at1 AE, Definitely (relationship), (%) ([1]; 2 g/day (N = 33)): (0.0) %
- T#at1 AE, Mild (severity), # Event ([1]; 2 g/day (N = 33)): 13
- T#at1 AE, Mild (severity), (%) ([1]; 2 g/day (N = 33)): (39.4) %
- T#at1 AE, Moderate (severity), # Event ([1]; 2 g/day (N = 33)): 6
- T#at1 AE, Moderate (severity), (%) ([1]; 2 g/day (N = 33)): (18.2) %
- T#at1 AE, Possibly (relationship), # Event ([1]; 2 g/day (N = 33)): 5
- T#at1 AE, Possibly (relationship), (%) ([1]; 2 g/day (N = 33)): (15.2) %
- T#at1 AE, Probably (relationship), # Event ([1]; 2 g/day (N = 33)): 2
- T#at1 AE, Probably (relationship), (%) ([1]; 2 g/day (N = 33)): (6.1) %
- T#at1 AE, Severe (severity), # Event ([1]; 2 g/day (N = 33)): 0
- T#at1 AE, Severe (severity), (%) ([1]; 2 g/day (N = 33)): (0.0) %
- Total number of subjects with at least one adverse event (T#at1 AE), # Event ([1]; 2 g/day (N = 33)): 16
- Total number of subjects with at least one adverse event (T#at1 AE), (%) ([1]; 2 g/day (N = 33)): (48.5) %
- Abdominal Pain (Preferred Term), # Event ([1]; 4 g/day (N = 34)): 4
- Abdominal Pain (Preferred Term), (%) ([1]; 4 g/day (N = 34)): (11.8) %
- Diarrhea (Preferred Term), # Event ([1]; 4 g/day (N = 34)): 1
- Diarrhea (Preferred Term), (%) ([1]; 4 g/day (N = 34)): (2.9) %
- GI Disorder, Definitely (relationship), # Event ([1]; 4 g/day (N = 34)): 0
- GI Disorder, Definitely (relationship), (%) ([1]; 4 g/day (N = 34)): (0.0) %
- GI Disorder, Possibly (relationship), # Event ([1]; 4 g/day (N = 34)): 6
- GI Disorder, Possibly (relationship), (%) ([1]; 4 g/day (N = 34)): (17.6) %
- GI Disorder, Probably (relationship), # Event ([1]; 4 g/day (N = 34)): 2
- GI Disorder, Probably (relationship), (%) ([1]; 4 g/day (N = 34)): (5.9) %
- GI Disorders (System Organ Class), # Event ([1]; 4 g/day (N = 34)): 10
- GI Disorders (System Organ Class), (%) ([1]; 4 g/day (N = 34)): (29.4) %
- GI Disorders, Mild (severity), # Event ([1]; 4 g/day (N = 34)): 8
- GI Disorders, Mild (severity), (%) ([1]; 4 g/day (N = 34)): (23.5) %
- General Disorders (System Organ Class), # Event ([1]; 4 g/day (N = 34)): 2
- General Disorders (System Organ Class), (%) ([1]; 4 g/day (N = 34)): (5.9) %
- Infections and Infestations (System Organ Class), # Event ([1]; 4 g/day (N = 34)): 3
- Infections and Infestations (System Organ Class), (%) ([1]; 4 g/day (N = 34)): (8.8) %
- Skin and SC Tissue Disorders (System Organ Class), # Event ([1]; 4 g/day (N = 34)): 0
- Skin and SC Tissue Disorders (System Organ Class), (%) ([1]; 4 g/day (N = 34)): (0.0) %
- T#at1 AE, Definitely (relationship), # Event ([1]; 4 g/day (N = 34)): 0
- T#at1 AE, Definitely (relationship), (%) ([1]; 4 g/day (N = 34)): (0.0) %
- T#at1 AE, Mild (severity), # Event ([1]; 4 g/day (N = 34)): 9
- T#at1 AE, Mild (severity), (%) ([1]; 4 g/day (N = 34)): (26.5) %
- T#at1 AE, Moderate (severity), # Event ([1]; 4 g/day (N = 34)): 3
- T#at1 AE, Moderate (severity), (%) ([1]; 4 g/day (N = 34)): (8.8) %
- T#at1 AE, Possibly (relationship), # Event ([1]; 4 g/day (N = 34)): 6
- T#at1 AE, Possibly (relationship), (%) ([1]; 4 g/day (N = 34)): (17.6) %
- T#at1 AE, Probably (relationship), # Event ([1]; 4 g/day (N = 34)): 2
- T#at1 AE, Probably (relationship), (%) ([1]; 4 g/day (N = 34)): (5.9) %
- T#at1 AE, Severe (severity), # Event ([1]; 4 g/day (N = 34)): 2
- T#at1 AE, Severe (severity), (%) ([1]; 4 g/day (N = 34)): (5.9) %
- Total number of subjects with at least one adverse event (T#at1 AE), # Event ([1]; 4 g/day (N = 34)): 12
- Total number of subjects with at least one adverse event (T#at1 AE), (%) ([1]; 4 g/day (N = 34)): (35.3) %
- Abdominal Pain (Preferred Term), # Event ([1]; 6 g/day (N = 33)): 2
- Abdominal Pain (Preferred Term), (%) ([1]; 6 g/day (N = 33)): (6.1) %
- Diarrhea (Preferred Term), # Event ([1]; 6 g/day (N = 33)): 1
- Diarrhea (Preferred Term), (%) ([1]; 6 g/day (N = 33)): (3.0) %
- GI Disorder, Definitely (relationship), # Event ([1]; 6 g/day (N = 33)): 0
- GI Disorder, Definitely (relationship), (%) ([1]; 6 g/day (N = 33)): (0.0) %
- GI Disorder, Possibly (relationship), # Event ([1]; 6 g/day (N = 33)): 1
- GI Disorder, Possibly (relationship), (%) ([1]; 6 g/day (N = 33)): (3.0) %
- GI Disorder, Probably (relationship), # Event ([1]; 6 g/day (N = 33)): 5
- GI Disorder, Probably (relationship), (%) ([1]; 6 g/day (N = 33)): (15.2) %
- GI Disorders (System Organ Class), # Event ([1]; 6 g/day (N = 33)): 10
- GI Disorders (System Organ Class), (%) ([1]; 6 g/day (N = 33)): (30.3) %
- GI Disorders, Mild (severity), # Event ([1]; 6 g/day (N = 33)): 9
- GI Disorders, Mild (severity), (%) ([1]; 6 g/day (N = 33)): (27.3) %
- General Disorders (System Organ Class), # Event ([1]; 6 g/day (N = 33)): 4
- General Disorders (System Organ Class), (%) ([1]; 6 g/day (N = 33)): (12.1) %
- Infections and Infestations (System Organ Class), # Event ([1]; 6 g/day (N = 33)): 1
- Infections and Infestations (System Organ Class), (%) ([1]; 6 g/day (N = 33)): (3.0) %
- Skin and SC Tissue Disorders (System Organ Class), # Event ([1]; 6 g/day (N = 33)): 4
- Skin and SC Tissue Disorders (System Organ Class), (%) ([1]; 6 g/day (N = 33)): (12.1) %
- T#at1 AE, Definitely (relationship), # Event ([1]; 6 g/day (N = 33)): 0
- T#at1 AE, Definitely (relationship), (%) ([1]; 6 g/day (N = 33)): (0.0) %
- T#at1 AE, Mild (severity), # Event ([1]; 6 g/day (N = 33)): 14
- T#at1 AE, Mild (severity), (%) ([1]; 6 g/day (N = 33)): (42.4) %
- T#at1 AE, Moderate (severity), # Event ([1]; 6 g/day (N = 33)): 2
- T#at1 AE, Moderate (severity), (%) ([1]; 6 g/day (N = 33)): (6.1) %
- T#at1 AE, Possibly (relationship), # Event ([1]; 6 g/day (N = 33)): 2
- T#at1 AE, Possibly (relationship), (%) ([1]; 6 g/day (N = 33)): (6.1) %
- T#at1 AE, Probably (relationship), # Event ([1]; 6 g/day (N = 33)): 5
- T#at1 AE, Probably (relationship), (%) ([1]; 6 g/day (N = 33)): (15.2) %
- T#at1 AE, Severe (severity), # Event ([1]; 6 g/day (N = 33)): 1
- T#at1 AE, Severe (severity), (%) ([1]; 6 g/day (N = 33)): (3.0) %
- Total number of subjects with at least one adverse event (T#at1 AE), # Event ([1]; 6 g/day (N = 33)): 17
- Total number of subjects with at least one adverse event (T#at1 AE), (%) ([1]; 6 g/day (N = 33)): (51.5) %
- serum creatinine level [2]: trend of decreased serum creatinine level
